Measured values from the supplement of paper PMC10307832.

Assays:
Experiment in all cases: relative viability (nuclei count vs DMSO), 5 days (fraction); higher = more cells survive
AZD1208 + Lapatinib = compound: N[C@@H]1CCCN(c2c(/C=C3\SC(=O)NC3=O)cccc2-c2ccccc2)C1 [AZD1208] + CS(=O)(=O)CCNCc1ccc(-c2ccc3ncnc(Nc4ccc(OCc5cccc(F)c5)c(Cl)c4)c3c2)o1 [Lapatinib] (partner 2 µM)
How it was run: (§1)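 Dosing by pin tool came one day after lung cancer cell lines were seeded in 1536-well plates, using either one drug or a fixed anchor-drug dose plus five library-drug doses (not always all listed) in √10 steps. After 5 days, nuclei were counted on 4× images. Relative viability is treated-well nuclei count divided by vehicle-well nuclei count, and values are medians of duplicate plates.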

AZD1208 + Dasatinib = compound: N[C@@H]1CCCN(c2c(/C=C3\SC(=O)NC3=O)cccc2-c2ccccc2)C1 [AZD1208] + Cc1nc(Nc2ncc(C(=O)Nc3c(C)cccc3Cl)s2)cc(N2CCN(CCO)CC2)n1 [Dasatinib] (partner 0.075 µM)
How it was run: as §1

XMD14-99 + OSI-027 = compound: CN1CCN(CC1)C2=CC(=C(C=C2)NC3=NC(=C(S3)C(=O)C4=C(C=CC=C4Cl)Cl)N)OC [XMD14-99] + COc1cccc2cc(-c3nc([C@H]4CC[C@H](C(=O)O)CC4)n4ncnc(N)c34)[nH]c12 [OSI-027] (partner 0.5 µM)
How it was run: as §1

XMD14-99 + Pictilisib = compound: CN1CCN(CC1)C2=CC(=C(C=C2)NC3=NC(=C(S3)C(=O)C4=C(C=CC=C4Cl)Cl)N)OC [XMD14-99] + CS(=O)(=O)N1CCN(Cc2cc3nc(-c4cccc5[nH]ncc45)nc(N4CCOCC4)c3s2)CC1 [Pictilisib] (partner 1 µM)
How it was run: as §1

Cell Line	relative viability (AZD1208 + Lapatinib; first compound 0.08 µM)	relative viability (AZD1208 + Lapatinib; first compound 0.253 µM)	relative viability (AZD1208 + Lapatinib; first compound 0.8 µM)	relative viability (AZD1208 + Lapatinib; first compound 2.53 µM)	relative viability (AZD1208 + Lapatinib; first compound 8 µM)	relative viability (AZD1208 + Dasatinib; first compound 0.08 µM)	relative viability (AZD1208 + Dasatinib; first compound 0.253 µM)	relative viability (AZD1208 + Dasatinib; first compound 0.8 µM)	relative viability (AZD1208 + Dasatinib; first compound 2.53 µM)	relative viability (AZD1208 + Dasatinib; first compound 8 µM)	relative viability (XMD14-99 + OSI-027; first compound 0.08 µM)	relative viability (XMD14-99 + OSI-027; first compound 0.8 µM)	relative viability (XMD14-99 + OSI-027; first compound 2.53 µM)	relative viability (XMD14-99 + OSI-027; first compound 8 µM)	relative viability (XMD14-99 + Pictilisib; first compound 0.08 µM)	relative viability (XMD14-99 + Pictilisib; first compound 0.8 µM)	relative viability (XMD14-99 + Pictilisib; first compound 2.53 µM)	relative viability (XMD14-99 + Pictilisib; first compound 8 µM)
NCI-H1792	0.874	0.999	0.885	0.908	0.757	0.722	0.595	0.647	0.675	0.55	0.71	0.686	0.657	0.413	0.281	0.252	0.22	0.182
NCI-H661	0.397	0.425	0.396	0.383	0.46	0.95	0.98	0.864	0.777	0.902	0.777	0.673	0.498	0.416	0.375	0.322	0.389	0.298
COR-L23	0.991	1.18	0.942	1.02	0.916	0.471	0.508	0.479	0.452	0.523	0.796	0.724	0.561	0.406	0.676	0.748	0.68	0.414
COR-L 105	0.366	0.334	0.299	0.29	0.36	0.34	0.34	0.308		0.356	0.701	0.646	0.647	0.409	0.363	0.374	0.34	0.357
LK-2	0.738	0.616	0.63	0.39	0.447	0.273	0.224	0.17	0.167	0.178	0.19	0.182	0.162	0.179	0.592	0.506	0.517	0.465
201T	1.03	0.992	1.04	1.08	0.913	0.579	0.557	0.522	0.504	0.51	0.748	0.729	0.828	0.494	0.7	0.666	0.658	0.619
NCI-H647	1.04	1.58	1.04	0.97	0.742	0.119	0.226	0.106	0.132	0.169	0.621	0.71	0.746	0.605	0.421	0.412	0.472	0.379
H3255	0.258	0.231	0.225	0.219	0.22	0.438	0.413	0.362	0.385	0.43	0.548	0.57	0.535	0.487	0.451	0.39	0.403	0.302
NCI-H650	1.06	0.771	1.06	0.648	0.817	0.509	0.451	0.385	0.379	0.338	0.544	0.58	0.464	0.42	0.931	0.992	0.805	0.72
NCI-H2085	0.768	0.862	0.7	0.687	0.726	0.27	0.217	0.306	0.218	0.262	0.725	0.815	0.624	0.42	0.454	0.446	0.445	0.482
NCI-H2347	1.09	1.11	0.896	0.843	0.97	0.306	0.339	0.339	0.321	0.257	0.401	0.349	0.378	0.276	0.519	0.871	0.477	0.431
NCI-H1944	0.8	0.788	0.708	0.712	0.484	0.196	0.178	0.175	0.193	0.16	0.382	0.44	0.358	0.278	0.325	0.335	0.337	0.269
NCI-H1793	0.563	0.982	0.629	0.678	0.58	0.333	0.347	0.358	0.427	0.298	0.269	0.26	0.232	0.199	0.423	0.289	0.368	0.333
NCI-H596	1.05	1.1	0.967	0.984	0.835	0.545	0.586	0.524	0.524	0.462	0.675	0.901	0.609	0.643	0.399	0.413	0.35	0.396
